Measured values: US20020174455A1, “Sustained totipotent culture of selected monocot genera” (priority 2001, published 2002)

Assays:
[1] = tested on: cloned A. donax plants (roots); experiment: Trichloroethene challenge of cloned plants in phytoreactor (Example 4); assay type: in vivo, Arundo donax L.; conditions: 0.25 mM in hydroponic solution; after a recovery period of 3 to 4 weeks
Experimental: Sustained titopotent cultures of A donax were grown as described in Example 2, and cloned plants derived from the titopotent tissues were established in a standard liquid hydroponic solution in plastic tubs (Shown in FIG. 4 A). In one phytoreactor tub, trichloroethene (trichloroethylene) was added to a concentration of 0.25 mM. This was believed to be a high concentration of the organic material, because the allowable EPA concentration is 0.005 mg/l.

[2] = tested on: A. donax explants; experiment: Phosphinothricin selection of explants with or without Agrobacterium tumefaciens cocultivation (Example 3); assay type: cell-based, Arundo donax L.; conditions: 10 mg/l
Experimental: Cross-sectional segment of immature A. donax inflorescence were prepared and cultivated as described in Example 2. The totipotent tissue was cocultivated with Agrobacterium tumefaciens carrying plasmid pMSF3022, which carried the bar gene for positive selection in plant cells. The gene confers resistance to the antibiotic/herbicide phosphinothricin.
Cocultivation was carried out in 6 ml. of liquid primary culture medium for four days in the dark at room temperature. Explants were then rinsed with liquid medium and placed on solid selective and non-selective control medium containing the antibiotic/herbicide phosphinothricine at 10 mg/l. All medium contained tidarcillin at 400 mg/l to eliminate residual A. tumefaciens. Controls includes explants incubated without A. tumefaciens. […] This can be contrasted with control explants (which were not contacted with A. tumefaciens) that were killed by 10 mg/l of phosphinothricin (FIG. 3A). Also shown are control explants that have developed callus in the absence of phosphinothricin (FIG. 3B), and cocultivated explants that have developed callus in the absence of phosphinothricin (FIG. 3D).

| Compound | state of roots of challenged plants [1] | effect on control explants (not contacted with A. tumefaciens) [2] |
| --- | --- | --- |
| ClC=C(Cl)Cl [trichloroethene] | fully recovered | – |
| CP(=O)(O)CC[C@H](N)C(=O)O [phosphinothricin] | – | killed |
